Columns and labels:
[1] = Inhibition of MERS-CoV 3CLpro using SG-QXL520 as substrate preincubated with compound for 30 mins followed by susbtrate addition and measured after 30 mins by FRET assay; design: species or system Middle East respiratory syndrome-related coronavirus
[2] = target: Replicase polyprotein 1ab (Severe acute respiratory syndrome coronavirus 2, UniProt P0DTD1); assay: Inhibition of full length N-terminal his6-tagged SARS-CoV-2 3CL protease using FAM-SAVLQ as substrate preincubated with compound for 30 mins followed by substrate addition and measured after 30 mins by FRET assay
[3] = Cytotoxicity against cat CRFK cells incubated for 72 hrs by CytoTox 96 analysis; format: toxicity, cell-based, Felis catus
[4] = system: SARS-CoV-2; assay: Antiviral activity against SARS CoV-2 Wuhan-Hu-1 infected in HEK293T cells incubated for 24 hrs; format: functional, organism-based; details: Severe acute respiratory syndrome coronavirus 2, Wuhan-Hu-1, HEK-293T

Compound | IC50 [1] | IC50 [2] | CC50 at 72 h [3] | EC50 [4]
CC(C)C[C@H](NC(=O)OCC1CC(=O)N(Cc2ccccc2)C1)C(=O)N[C@H](C=O)C[C@@H]1CCNC1=O (stereo partly drawn) | 80 nM | 720 nM | > 50000 nM | –
CC(C)C[C@H](NC(=O)OCC1CCN(C[C@H]2C[C@H]3C=C[C@@H]2C3)C1=O)C(=O)N[C@H](C=O)C[C@@H]1CCNC1=O (stereo partly drawn) | 80 nM | 460 nM | > 50000 nM | –
CC(C)C[C@H](NC(=O)OCC1CCN(Cc2ccccc2)C1=O)C(=O)N[C@H](C=O)C[C@@H]1CCNC1=O (stereo partly drawn) | 60 nM | 790 nM | > 50000 nM | –
CC(C)C[C@H](NC(=O)OCC1CCN(Cc2ccco2)C1=O)C(=O)N[C@H](C=O)C[C@@H]1CCNC1=O (stereo partly drawn) | 130 nM | 1960 nM | > 50000 nM | –
CC(C)C[C@H](NC(=O)OCC1CCN(C[C@H]2C[C@H]3CC[C@@H]2C3)C1=O)C(=O)N[C@H](C=O)C[C@@H]1CCNC1=O (stereo partly drawn) | 90 nM | 430 nM | > 50000 nM | –
CC(C)C[C@H](NC(=O)OCC1CC(=O)N(CC2CC3CCC2C3)C1)C(=O)N[C@H](C=O)C[C@@H]1CCNC1=O (stereo partly drawn) | 60 nM | 160 nM | > 50000 nM | 120 nM
CC(C)C[C@H](NC(=O)OC[C@@H]1CCC(=O)N1Cc1ccccc1)C(=O)N[C@H](C=O)C[C@@H]1CCNC1=O | 130 nM | 430 nM | > 50000 nM | –
CC(C)C[C@H](NC(=O)OC[C@@H]1CCC(=O)N1Cc1cccc(F)c1)C(=O)N[C@H](C=O)C[C@@H]1CCNC1=O | 430 nM | 110 nM | > 50000 nM | 50 nM
CC(C)C[C@H](NC(=O)OC[C@@H]1CCC(=O)N1Cc1ccco1)C(=O)N[C@@H](C[C@@H]1CCNC1=O)C(O)S(=O)(=O)O (stereo partly drawn) | 50 nM | 250 nM | > 50000 nM | –
CC(C)C[C@H](NC(=O)OC[C@@H]1CCC(=O)N1CCc1ccccc1)C(=O)N[C@H](C=O)C[C@@H]1CCNC1=O | 140 nM | 730 nM | > 50000 nM | –
CC(C)C[C@H](NC(=O)OC[C@@H]1CCC(=O)N1C[C@H]1C[C@@H]2CC[C@H]1C2)C(=O)N[C@H](C=O)C[C@@H]1CCNC1=O | 70 nM | 500 nM | > 50000 nM | –
CC(C)C[C@H](NC(=O)OCC1CCN(Cc2ccccc2)C1=O)C(=O)N[C@@H](C[C@@H]1CCNC1=O)C(O)S(=O)(=O)O (stereo partly drawn) | 60 nM | 820 nM | > 50000 nM | –
CC(C)C[C@H](NC(=O)OCC1CC(=O)N(CC2CCCCC2)C1)C(=O)N[C@H](C=O)C[C@@H]1CCNC1=O (stereo partly drawn) | 50 nM | 310 nM | > 50000 nM | 130 nM
CC(C)C[C@H](NC(=O)OC[C@H]1CCC(=O)N1CC1CCCCC1)C(=O)N[C@@H](C[C@@H]1CCNC1=O)C(O)S(=O)(=O)O (stereo partly drawn) | 80 nM | 510 nM | > 50000 nM | –
CC(C)C[C@H](NC(=O)OC[C@@H]1CCC(=O)N1C[C@H]1C[C@@H]2CC[C@H]1C2)C(=O)N[C@@H](C[C@@H]1CCNC1=O)C(O)S(=O)(=O)O (stereo partly drawn) | 60 nM | 410 nM | > 50000 nM | –
CC(C)C[C@H](NC(=O)OC[C@@H]1CCC(=O)N1Cc1ccccc1)C(=O)N[C@@H](C[C@@H]1CCNC1=O)C(O)S(=O)(=O)O (stereo partly drawn) | 90 nM | 490 nM | > 50000 nM | –
CC(C)C[C@H](NC(=O)OC[C@@H]1CCC(=O)N1CCC1CCCCC1)C(=O)N[C@H](C=O)C[C@@H]1CCNC1=O | 90 nM | 500 nM | > 50000 nM | –
CC(C)C[C@H](NC(=O)OC[C@@H]1CCC(=O)N1CC1CCC(F)(F)CC1)C(=O)N[C@@H](C[C@@H]1CCNC1=O)C(O)S(=O)(=O)O (stereo partly drawn) | 60 nM | 540 nM | > 50000 nM | –

Compound | IC50 [1] | IC50 [2] | CC50 at 72 h [3] | EC50 [4]
CC(C)C[C@H](NC(=O)OC[C@@H]1CCC(=O)N1CC1CCC(F)(F)CC1)C(=O)N[C@H](C=O)C[C@@H]1CCNC1=O | 60 nM | 550 nM | > 50000 nM | –
CC(C)C[C@H](NC(=O)OCC1CC(=O)N(Cc2ccco2)C1)C(=O)N[C@@H](C[C@@H]1CCNC1=O)C(O)S(=O)(=O)O (stereo partly drawn) | 80 nM | 560 nM | > 50000 nM | –
CC(C)C[C@H](NC(=O)OCC1CCN(C[C@H]2C[C@H]3CC[C@@H]2C3)C1=O)C(=O)N[C@@H](C[C@@H]1CCNC1=O)C(O)S(=O)(=O)O (stereo partly drawn) | 130 nM | 510 nM | > 50000 nM | –
CC(C)C[C@H](NC(=O)OC[C@H]1CCC(=O)N1CC1CCCCC1)C(=O)N[C@H](C=O)C[C@@H]1CCNC1=O | 70 nM | 500 nM | > 50000 nM | –
CC(C)C[C@H](NC(=O)OC[C@@H]1CCC(=O)N1CCC1CCCCC1)C(=O)N[C@@H](C[C@@H]1CCNC1=O)C(O)S(=O)(=O)O (stereo partly drawn) | 90 nM | 580 nM | > 50000 nM | –
CC(C)C[C@H](NC(=O)OC[C@@H]1CCC(=O)N1Cc1ccco1)C(=O)N[C@H](C=O)C[C@@H]1CCNC1=O | 60 nM | 330 nM | > 50000 nM | –
CC(C)C[C@H](NC(=O)OC[C@@H]1CCC(=O)N1C[C@H]1C[C@@H]2C=C[C@H]1C2)C(=O)N[C@@H](C[C@@H]1CCNC1=O)C(O)S(=O)(=O)O (stereo partly drawn) | 60 nM | 450 nM | > 50000 nM | –
CC(C)C[C@H](NC(=O)OCC1CCN(Cc2cccc(C(F)(F)F)c2)C1=O)C(=O)N[C@H](C=O)C[C@@H]1CCNC1=O (stereo partly drawn) | 70 nM | 850 nM | > 50000 nM | –
CC(C)C[C@H](NC(=O)OC[C@@H]1CCC(=O)N1CCc1ccccc1)C(=O)N[C@@H](C[C@@H]1CCNC1=O)C(O)S(=O)(=O)O (stereo partly drawn) | 160 nM | 550 nM | > 50000 nM | –
CC(C)C[C@H](NC(=O)OCC1CC(=O)N(Cc2cccc(C(F)(F)F)c2)C1)C(=O)N[C@H](C=O)C[C@@H]1CCNC1=O (stereo partly drawn) | 60 nM | 410 nM | > 50000 nM | –
CC(C)C[C@H](NC(=O)OC[C@@H]1CCC(=O)N1C[C@H]1C[C@@H]2C=C[C@H]1C2)C(=O)N[C@H](C=O)C[C@@H]1CCNC1=O | 60 nM | 418 nM | > 50000 nM | –
CC(C)C[C@H](NC(=O)OCC1CC(=O)N(Cc2ccccc2)C1)C(=O)N[C@@H](C[C@@H]1CCNC1=O)C(O)S(=O)(=O)O (stereo partly drawn) | 50 nM | 650 nM | > 50000 nM | –
CC(C)C[C@H](NC(=O)OCC1CCN(Cc2cccc(C(F)(F)F)c2)C1=O)C(=O)N[C@@H](C[C@@H]1CCNC1=O)C(O)S(=O)(=O)O (stereo partly drawn) | 60 nM | 880 nM | > 50000 nM | –
CC(C)C[C@H](NC(=O)OCC1CC(=O)N(Cc2cccc(C(F)(F)F)c2)C1)C(=O)N[C@@H](C[C@@H]1CCNC1=O)C(O)S(=O)(=O)O (stereo partly drawn) | 70 nM | 350 nM | > 50000 nM | –
CC(C)C[C@H](NC(=O)OCC1CCN(Cc2ccco2)C1=O)C(=O)N[C@@H](C[C@@H]1CCNC1=O)C(O)S(=O)(=O)O (stereo partly drawn) | 150 nM | 2010 nM | > 50000 nM | –
CC(C)C[C@H](NC(=O)OCC1CCN(C[C@H]2C[C@H]3C=C[C@@H]2C3)C1=O)C(=O)N[C@@H](C[C@@H]1CCNC1=O)C(O)S(=O)(=O)O (stereo partly drawn) | 150 nM | 550 nM | > 50000 nM | –
CC(C)C[C@H](NC(=O)OCC1CC(=O)N(Cc2ccco2)C1)C(=O)N[C@H](C=O)C[C@@H]1CCNC1=O (stereo partly drawn) | 70 nM | 550 nM | > 50000 nM | –

Source: ChEMBL document CHEMBL5523732, “Structure-Guided Design of Potent Coronavirus Inhibitors with a 2-Pyrrolidone Scaffold: Biochemical, Crystallographic, and Virological Studies” (J Med Chem, 2024)
